Format in all cases: functional, organism-based
Assay [1] concerns Plasmodium falciparum. Put plainly: Antimalarial activity against Chloroquine resistant Plasmodium falciparum W2 assessed as parasitic growth inhibition measured after 48 hrs by fluorescence based assay. To be noted: W2, 48 h.
Assay [2] deals with Plasmodium falciparum. Put plainly: Antimalarial activity against Plasmodium falciparum 3D7 assessed as parasitic growth inhibition measured after 72 hrs by SYBR Green dye based assay. The settings on record: 3D7, 72 h.
For assay [3], the system named is Plasmodium falciparum. Put plainly: Antimalarial activity against Plasmodium falciparum 3D7 assessed as parasitic growth inhibition.
The subject of assay [4] is Plasmodium falciparum. Put plainly: Antimalarial activity against Plasmodium falciparum Dd2 assessed as parasitic growth inhibition.
Assay [5] concerns Plasmodium falciparum. In words: Antimalarial activity against Plasmodium falciparum K1 assessed as parasitic growth inhibition.
The test system of assay [6] is Plasmodium falciparum. In words: Antimalarial activity against Plasmodium falciparum assessed as parasitic growth inhibition.
The test system of assay [7] is Plasmodium falciparum. In words: Antimalarial activity against Chloroquine resistant Plasmodium falciparum Dd2 assessed as parasitic growth inhibition measured after 3 days by ELISA assay. The settings on record: Dd2, 72 h. A general note: In an ELISA, binding on a coated surface is turned into a signal by an enzyme label.
For assay [8], the system named is Plasmodium falciparum. In words: Antimalarial activity against Chloroquine sensitive Plasmodium falciparum 3D7 assessed as parasitic growth inhibition measured after 3 days by ELISA assay. The settings on record: 3D7, 72 h.
Assay [9] relates to Plasmodium falciparum. In words: Antimalarial activity against Chloroquine sensitive Plasmodium falciparum assessed as parasitic growth inhibition.
Assay [10] deals with Plasmodium falciparum. Put plainly: Antimalarial activity against Chloroquine sensitive Plasmodium falciparum RKL-2 assessed as parasitic growth inhibition measured after 36 to 40 hrs by Giemsa staining based assay.
For assay [11], the system named is Plasmodium falciparum. In words: Antimalarial activity against Plasmodium falciparum male gametocytes assessed as parasitic growth inhibition.
For assay [12], the system named is Plasmodium falciparum. In words: Antimalarial activity against Plasmodium falciparum female gametocytes assessed as parasitic growth inhibition.
The subject of assay [13] is Plasmodium falciparum. In words: Antimalarial activity against chloroquine sensitive Plasmodium falciparum 3D7 assessed as parasitic growth inhibition by SYBR Green I dye based assay.
The test system of assay [14] is Plasmodium falciparum. In words: Antimalarial activity against Plasmodium falciparum 3D7 assessed as parasitic growth inhibition measured after 42 hrs by [3H]hypoxanthine incorporation assay.
Assay [15] deals with Plasmodium falciparum. In words: Antimalarial activity against Chloroquine-pyrimethamine resistant Plasmodium falciparum W2 assessed as parasitic growth inhibition measured after 48 hrs. To be noted: W2, 48 h.
Assay [16] relates to Plasmodium falciparum. Put plainly: Antimalarial activity against Chloroquine-pyrimethamine sensitive Plasmodium falciparum D6 assessed as parasitic growth inhibition measured after 48 hrs. To be noted: D6, 48 h.

Values after ≈ are worked out from the molar mass of the structure shown.

In the case of `O=C1c2ccc(N3CCOCC3)cc2C(=O)N1CCCCCCNc1ccnc2cc(Cl)ccc12`, in assay [1], the IC50 (in general, the point on the concentration scale where inhibition reaches its midpoint) is 19 nM.

As to `C[C@H]1[C@H](OC(=O)CCC(=O)Nc2cccc3ncnc(Nc4ccc(Cl)c(Cl)c4)c23)O[C@@H]2O[C@@]3(C)CC[C@H]4[C@H](C)CC[C@@H]1[C@@]24OO3`, the concentration for a half-maximal effect (EC50) (in general, the concentration at which the effect is half-maximal) in [2] turned out to be 1.4 nM. Take `O=C1c2cccc(N3CCOCC3)c2C(=O)N1CCCCCCNc1ccnc2cc(Cl)ccc12`: the IC50 in assay [1] stood at 25 nM. Regarding `Cc1nc(-c2ccccc2)c(-c2ccccc2)c2cc(-c3cn(CCOC(=O)CCC(=O)O[C@@H]4O[C@@H]5O[C@]6(C)CC[C@H]7[C@H](C)CC[C@@H]([C@H]4C)[C@@]57OO6)nn3)ccc12`, the values for the EC50 in assay [3], in [4] and in assay [5] were 5.3 nM, 4.8 nM and 3.3 nM, respectively. Regarding `CCNC(=S)NNC(=O)c1c(C)nc2ccccc2c1C`, the IC50 in assay [6] was found to be 0.15 mg/L (≈ 0.496 µM).

For `O=C1c2ccc(N3CCN(CCO)CC3)cc2C(=O)N1CCCCCCNc1ccnc2cc(Cl)ccc12`, in assay [1], the IC50 turned out to be 15 nM. For `COc1cc(NC(C)CCCN)c2ncccc2c1` (stereo not drawn) [PRIMAQUINE], the IC50 was found to be 4300 nM in assay [7] and 1500 nM in assay [8]. For `CC1=C(C(=O)Nc2ccc(Br)cn2)C(c2cn(-c3ccccc3)nc2-c2ccc(Cl)cc2)NC(=O)N1` (stereo not drawn), the IC50 in assay [9] came out at 0.03 mg/L (≈ 0.0532 µM).

Turning to `Clc1ccc2c(NCCCNc3nc(Nc4ccc(N5CCOCC5)cc4)nc(Nc4ccc(N5CCOCC5)cc4)n3)ccnc2c1`, the IC50 in assay [10] was found to be 47.5 mg/L (≈ 71.2 µM). For the compound `OC(c1cc(C(F)(F)F)nc2c(C(F)(F)F)cccc12)C1CCCCN1` (stereo not drawn) [MEFLOQUINE], the IC50 in [11] amounted to 16500 nM; in [12], 5600 nM.

`Cc1nc2ccccc2c(C)c1C(=O)NNC(=S)Nc1ccc(Cl)cc1`: the IC50 in assay [6] was 0.15 mg/L (≈ 0.39 µM). On to `COc1ccc2nc3cc(Cl)ccc3c(NCC3C(=O)c4ccc5c6c(ccc(c46)C3=O)C(=O)N(CN(C)C)C5=O)c2c1`, for which, in assay [13], the IC50 was determined as 4.33 nM. With `C[C@H]1[C@H](OC(=O)CCC(=O)OCCc2cn(-c3ccnc4cc(Cl)ccc34)nn2)O[C@@H]2O[C@]3(C)CC[C@H]4[C@H](C)CC[C@@H]1[C@@]24OO3`, the EC50 is 8 nM in assay [3], 4.9 nM in assay [4] and 2.6 nM in assay [5]. With `CCCN1C(=O)c2ccc3c4c(ccc(c24)C1=O)C(=O)C(CNc1c2ccc(Cl)cc2nc2ccc(OC)cc12)C3=O`, the IC50 in [13] is 3.65 nM. For the compound `CC1=C(C(=O)Nc2ccc(Br)cn2)C(c2cn(-c3ccccc3)nc2-c2ccc(F)cc2)NC(=O)N1` (stereo not drawn), the IC50 in [9] was determined as 0.07 mg/L (≈ 0.128 µM). `CCCCN1C(=O)c2ccc3c4c(ccc(c24)C1=O)C(=O)C(CCNc1c2ccc(Cl)cc2nc2ccc(OC)cc12)C3=O`: the IC50 in [13] came out at 3.89 nM. Regarding `COc1cccc(NC(=S)NNC(=O)c2c(C)nc3ccccc3c2C)c1`, the IC50 in [6] was 0.1 mg/L (≈ 0.263 µM). Consider `C[C@H]1[C@@H](OCCCCc2cn(-c3cccc4cc(Cl)ccc34)nn2)O[C@@H]2O[C@]3(C)CC[C@H]4[C@H](C)CC[C@@H]1[C@@]24OO3`, for which the EC50 amounted to 8.4 nM in assay [3], 6.1 nM in assay [4] and 3.7 nM in assay [5]. Taken in the same sequence, the figures for `C#CCCCC(C(=O)NCCOC(=O)CCC(=O)O[C@@H]1O[C@@H]2O[C@]3(C)CC[C@H]4[C@H](C)CC[C@@H]([C@H]1C)[C@@]24OO3)c1ccnc2cc(Cl)ccc12` (stereo partly drawn) were 6 nM, 4.8 nM and 2.2 nM. Regarding `COc1ccc2cc3[n+](cc2c1OCc1cn(-c2ccc(S(=O)(=O)Nc4ccc(F)cc4)cc2)nn1)CCc1cc2c(cc1-3)OCO2.[Cl-]`, the IC50 in [14] came out at 0.15 mg/L. As for `N=C(N=C(N)N)SCCNc1ccnc2cc(Cl)ccc12`, the IC50 in [15] is 3710 nM; in assay [16] it was 2250 nM. On to `O=C1c2cccc(N3CCOCC3)c2C(=O)N1CCCCNc1ccnc2cc(Cl)ccc12`, for which the IC50 in assay [1] was 71 nM. Still for that read-out and setting: for `O=C1c2ccc(N3CCOCC3)cc2C(=O)N1CCCCNc1ccnc2cc(Cl)ccc12` the value was 49 nM. For `CCc1nc(N)nc(N)c1-c1ccc(Cl)cc1` [PYRIMETHAMINE], the IC50 in assay [9] was 0.25 mg/L (≈ 1.01 µM). On to `C[C@H]1[C@@H](OCCc2cn(-c3cccc4cc(Cl)ccc34)nn2)O[C@@H]2O[C@]3(C)CC[C@H]4[C@H](C)CC[C@@H]1[C@@]24OO3`, for which the EC50 in assay [3] stood at 8.8 nM; in assay [4], 4.5 nM; in [5], 2 nM.

With `N=C(N=C(N)N)SCCCCNc1ccnc2cc(C(F)(F)F)ccc12`, the IC50 in assay [15] was determined as 6060 nM; in assay [16] it was 2800 nM. For the compound `COc1ccc2nc3cc(Cl)ccc3c(NCC3C(=O)c4ccc5c6c(ccc(c46)C3=O)C(=O)N(CCn3ccnc3)C5=O)c2c1`, the IC50 in assay [13] amounted to 8.44 nM. For `C[C@H]1[C@H](OC(=O)CCC(=O)OCCCc2cn(-c3ccnc4cc(Cl)ccc34)nn2)O[C@@H]2O[C@]3(C)CC[C@H]4[C@H](C)CC[C@@H]1[C@@]24OO3`, the EC50 in [3] amounted to 5.4 nM; in [4], 4.6 nM; in assay [5], 2.4 nM. Taken in the same sequence, the figures for `C[C@H]1[C@H](OC(=O)CCC(=O)NCCNc2ccnc3cc(Cl)ccc23)O[C@@H]2O[C@]3(C)CC[C@H]4[C@H](C)CC[C@@H]1[C@@]24OO3` were 2.7 nM, 1 nM and 0.78 nM. For the compound `Cc1nc2ccccc2c(C)c1C(=O)NNC(=S)NC(C)(C)C`, the IC50 in assay [6] was found to be 0.25 mg/L (≈ 0.757 µM).

Values taken from ChEMBL document CHEMBL5329153, “Is structural hybridization invoking new dimensions for antimalarial drug discovery research?” (RSC Med Chem, 2023).
